From patent publication US11472791B2 (Incyte Corporation, priority 2019, dated 2022)

How the values were obtained:
[1] = tested on: CCNE1-non-amplified cell lines (COV504, OV56, and Igrov1); test: Cell cycle analysis by FACS, CCNE1-non-amplified cell lines; type: cell-based, human; conditions: for inhibition of proliferation: CCNE1-non-amplified COV504 cells, 16 hours, increasing concentrations, vs DMSO; for percentage of cells at the S phase: COV504, OV56, Igrov1, 16 hours after treatment, compared to DMSO
Experimental: (§1) The effect of CDK4/6-inhibition in CCNE1-amplified versus CCNE1-non-amplified cell lines was evaluated.
(§2) A similar experiment was performed in a larger set of CCNE1-amplified cell lines (COV318 and OVCAR3) and CCNE1-non-amplified cell lines (COV504, OV56, and Igrov1) (FIG. 6).
(§3) Bulk DNA was stained with DAPI. Compound-treated and DMSO treated control cells were acquired with CytoFlex (Beckman Coulter) and were analyzed using the FlowJo software. For cell cycle analysis of cells with siRNA knockdown, 72 hours after siRNA transfection, cells exposed to 10 μM EdU for 3 hours before detection of Click-iT Alexa Fluor® 647 azide kit.

[2] = tested on: Rb phosphorylation at S780 in CCNE1-amplified cell lines (OVCAR3 and COV318); test: Western blot of Rb phosphorylation at S780, CCNE1-amplified cell lines; type: cell-based, human; conditions: OVCAR3 and COV318, various doses, 1 or 15 hours; listed as Palbociclib
Experimental: (§4) The effect of CDK4/6-inhibition on Rb phosphorylation at S780 in CCNE1-amplified versus CCNE1-non-amplified cell lines was evaluated. […] One or 15 hours after treatment, the cells were harvested and total protein was extracted and analyzed by western blot (FIG. 8).
(§5) Whole cell extracts were prepared using RIPA buffer (Thermo Scientific, 89900) with a Halt Protease and Phosphatase Inhibitor Cocktail (Thermo Scientific, 78440). Protein concentration was quantified with a BCA Protein Assay Kit (Thermo Scientific, 23225) and 40 μg of protein lysates were loaded for SDS-PAGE using precast gradient gels (Bio-Rad, Hercules, No. 456-1094). Samples were diluted in 5× Laemmli buffer (300 mM Tris-HCl pH 6.8, 10% SDS (w/v), 5% 2-mercaptoethanol, 25% glycerol (v/v), 0.1% bromophenol blue w/v) and boiled for 5 minutes. 35 μg of proteins were separated by 8-15% SDS-PAGE and transferred onto polyvinylidene fluoride (PVDF) membranes. Unspecific binding sites on the PVDF membranes were blocked with 5% non-fat milk in TEST (20 mM Tris-HCl, pH 7.6, 137 mM NaCl, 1% Tween-20). […] Images were captured by Luminescence/Fluorescence Imaging System Odyssey CLx Imager (LI-COR).

[3] = tested on: CCNE1-amplified cell lines (COV318 and OVCAR3); test: Cell cycle analysis by FACS, CCNE1-amplified cell lines; type: cell-based, human; conditions: for inhibition of proliferation: CCNE1-amplified OVCAR3 cells, 16 hours, increasing concentrations, vs DMSO
Experimental: as §1, §2, §3

[4] = tested on: Rb phosphorylation at S780 in CCNE1-non-amplified cell lines (COV504 and OV56); test: Western blot of Rb phosphorylation at S780, CCNE1-non-amplified cell lines; type: cell-based, human; conditions: COV504 and OV56, various doses, 1 or 15 hours
Experimental: as §4, §5

[5] = tested on: Rb phosphorylated on serine 780 in CCNE1 amplified COV318 cells; test: CDK2 pRb (S780) HTRF cellular assay; type: cell-based; conditions: Homo sapiens, read-out: IC50 in p-RB S780 HTRF cellular assay

Compound: CC(=O)c1c(C)c2cnc(Nc3ccc(N4CCNCC4)cn3)nc2n(C2CCCC2)c1=O [palbociclib]
- inhibition of proliferation [1]: dose-dependent inhibition of the proliferation
- inhibition of proliferation ([1]; listed as Palbociclib): dose-dependent inhibition of proliferation
- percentage of cells at the S phase [1]: decreased in CCNE1-non-amplified cell lines in a dose-dependent fashion
- percentage of cells at the S phase ([1]; listed as Palbociclib): selectively inhibits proliferation
- Rb phosphorylation at S780 [2]: not in amplified ovarian cells
- inhibition of proliferation [3]: not in CCNE1-amplified cells
- inhibition of proliferation ([3]; listed as Palbociclib): not in amplified cell lines
- percentage of cells at the S phase ([3]; COV318 and OVCAR3, 16 hours after treatment, compared to DMSO): not significantly different
- Rb phosphorylation at S780 [4]: blocked Rb phosphorylation at S780
- Rb phosphorylation at S780 ([4]; listed as Palbociclib): blocks RB phosphorylation at S780
- IC50 [5]: > 3000 nM
